Measurements published in patent publication US20260055081A1, “Metal Chelator Compounds, Coordination Complexes, and Methods of Preparation and Use Thereof” (University of Puerto Rico, priority 2022, published 2026).

How the values were obtained:
[1] = Aqueous solubility (observation); assay type: physicochemical
Colon cancer cell lines = assay: NCI 60 five-dose screen, colon panel; assay type: cell-based, human; settings: 48 h
Description: (§1) National Cancer Institute Cancer Cell Line (NCI 60) Screen of DefNEtTrp. Details of the methodology for NCI 60 cell line screening are described at http://dtp.nci.nih.gov/branches/btb/ivclsp.html. The cells, grown in supplemented RPMI-1640 medium, are seeded in 96 well plates at an appropriate density and incubated for 24 h. The test compounds are dissolved in DMSO and incubated with cells at a single dose of 10.0 μM for 48 h. The assay is terminated by addition of cold trichloroacetic acid, and the cells are fixed and stained with sulforhodamine B. Bound stain is solubilized, and the absorbance is read on an automated plate reader. […] Using the seven absorbance measurements [time zero, […], control growth, (C), and test growth in the presence of drug at the five concentration levels (Tf)], the percentage growth was calculated at each of the drug concentrations levels as: [(Tf−Ti)/(C−Ti)]×100 for concentrations for which Tf≥Ti and [(Tf−Ti)/Ti]×100 for concentrations for which Tf<Ti. Three-dose response parameters (GI50, TGI, and LC50) were calculated for each of the experimental agents in five dose assay. […] The total growth inhibition (TGI) was calculated from Tf=Ti, which was the drug concentration resulting in total growth inhibition and signified the cytostatic effect. […]

[2] = test system: Jurkat Leukemia cell line; assay: Jurkat cell viability (MTT assay); assay type: cell-based; settings: 72 h
Description: Jurkat cell culturing and cell viability studies. Jurkat cells are nonadherent cells, and they were cultured in an RPMI-1640 media (supplemented with 10% FBS (v/v) and 1% antibiotic solution (v/v) of penicillin/streptomycin) in non-tissue-culture treated 25 mL flasks according to the known protocol provided by the supplier ATCC. The cell passaging was done at 70% confluency by taking 3 mL of cells and diluting to 25 mL of fresh media. The cells were incubated at 37° C. in 5% CO2 atmosphere.
Jurkat cytotoxicity of DefNEtTrp (6), Def (5), NEtTrp (4), Trp, and 1:1 combinations of 5 with 4 and 5 with Trp was determined by the colorimetric 3-(4,5-dimethylthiazol-2-yl)-2,5-diphenyltetrazolium bromide (MTT) assay. Incubation conditions were the same in all the steps. Cells in 80-95% confluence (grown in standard circular tissue culture dishes, BD Falcon) were separately seeded into 96-well plates using phenol red free RPMI-1640 media (containing 10% FBS and 1% streptomycin/penicillin) in a volume of 50 μL at a concentration of 5.0×10^5 cells/mL. Following this procedure, the Jurkat cells were treated immediately. Stock solution of the compounds were first prepared in DMF at 5 mM and stored at 4° C. for up to 30 days. The stock solution was diluted to specific concentrations using 1×PBS (0.2-20 μM) while DMF was maintained at 1% (v/v). 50 μL of diluted solutions were added in all cell containing wells with at least six replicates per concentration (n=6). The final percentage (v/v) of DMF was 0.5%. The cells were also co-treated with 5 with 4 and 5 with Trp in a 1:1 mole equivalent ratio over the same concentration range but as a combined concentration of both compounds. Control wells in the plates consisted of one lane of cells treated with media alone including 0.5% DMF (v/v) as the measure of 100% viable cell growth in the media. Another control lane consisted of no cells with media including 0.5% DMF (v/v) as a measure of the background with no viable cells. The plates were incubated for 72 h. At 4 h before completion of the incubation time, 25 μL of MTT solution (sterile filtered 5 mg/mL solution, dissolved in 1×PBS buffer) was added to each well. During addition of the MTT solution, the plates were protected from light. After completion a 50 μL portion of 4% (w/v) SDS solution (sterile filtered, dissolved in Tris buffer 1M, pH=10) was added to each well and incubated to solubilize formazan crystals after MTT cell labeling. The absorbance of each well was measured at 570 nm (absorbance of the formazan product at pH >10.0) and 800 nm (as a background correction) using a Tecan plate reader. The absorbance of all wells was compared to the absorbance of the untreated cells with the MTT set as the 100% viable cell standard and the absorbance of the no cell control set as the 0% viable cell standard. Nonlinear regression in GraphPad Prism 8 was utilized to fit the growth curve over the various drug concentrations to determine the half-maximal inhibitory concentration (IC50). All cell viability experiments, including non-Jurkat cells, were repeated at least once for biological duplicates. To confirm cell death at the higher concentration dosages of the compounds and combinations, dead cells were blue stained with trypan blue and visually inspected under the microscope.

Melanoma cell lines = assay: NCI 60 five-dose screen, melanoma panel; assay type: cell-based, human; settings: 48 h
Description: as §1

Jurkat cells [3] = assay: Fe(III) supplementation cell viability study; assay type: cell-based, human; settings: Jurkat supplemented with 2 μM and 5 μM Fe(III) as Fe(Citrate)2 two hours before 2 μM DefNEtTrp, 72 h
Description: Fe(III) supplementation cell viability study. Jurkat cells were seeded into 96-well plates, as indicated in the MTT assay described above. One group of cells was supplemented with 2 μM [Fe(citrate)2]^5− (prepared in situ) while another was supplemented with 5 μM [Fe(citrate)2]^5−. Another group of cells were treated with media alone. After 2 h incubation, half of the cells supplemented with [Fe(citrate)2]^5− were treated with 2 μM DefNEtTrp while the other half was treated with media alone. The final percentage of DMF was maintained at 0.5% (v/v). The MTT assay was performed with these samples (n=6). A student t-test was performed to evaluate the difference in the viability of cells treated with DefNEtTrp and supplemented with and without [Fe(citrate)2]^5−.

Jurkat cells [4] = assay: Co-treatment with Q-VD-OPh and Fer-1, cell viability; assay type: cell-based, human; settings: 10 μM Fer-1/Q-VD-OPh, treatment with 2 μM, 72 h
Description: FIG. 23 is a bar graph showing observed changes in the % cell viability of Jurkat cells treated with 10 μM Ferrastatin-1/Q-VD-OPh (Fer-1/Q-V-O) in combination and then treated for 72 h with 2 μM DefNetTrp (DNT), or media alone. * p-value <0.01 vs the corresponding non-treated Fer-1/Q-V-O group.

[5] = cell lines in which TGI was observed
[6] = Homo sapiens, read-out: GI50 (calculated average)

SMILES: Nc1cccnc1/C=N/NC(=S)NCCNC(=O)c1ccc(-n2nc(-c3ccccc3O)nc2-c2ccccc2O)cc1 [DefNEtTrp, deferasirox nitrogen ethyl triapine]
- water solubility [1]: limited water solubility
- TGI (calculated average) (Colon cancer cell lines; [5]): 12220 nM
- GI50 (Colon cancer cell lines; [6]): 870 nM
- IC50 ([2]; Homo sapiens, Jurkat cell line, MTT): 770 ± 60 nM
- cytotoxic effect compared with Def, NEtTrp and Trp in single drug and combination drug treatments ([2]; Jurkat): superior cytotoxic effect
- TGI (calculated average) (Melanoma cell lines; [5]): 4730 nM
- GI50 (Melanoma cell lines; [6]): 610 nM
- viability relative to the non-supplemented group (Jurkat cells [3]): significant increase in viability
- change in viability with equimolar Q-VD-OPh and Fer-1 co-treatment (Jurkat cells [4]): three-fold increase in the viability
